Test [1] concerns allergic conjunctivitis model in mice. Nature of the test: Inhibitory effect on the vascular hyper-permeability in allergic conjunctivitis model. To be noted: Mus musculus, 1% (W/V) test compound suspension instilled to the right eye three times before ovalbumin instillation, dye leakage vs vehicle, mean of 5-6 eyes, read-out: The inhibition ratio of the vascular hyper-permeability (%). It counts as in vivo. The protocol: In order to evaluate anti-allergic effect, inhibitory effect on the vascular hyper-permeability in allergic conjunctivitis model in mice was examined. This effect was calculated based on dye leakages of vehicle-treated group (control group) and test compound-treated group.
By adding 0.5% polysorbate 80/saline to the test compound, a 1% (W/V) test compound suspension was prepared.
1) Ovalbumin absorbed on aluminum hydroxide gel was dissolved in saline (20 μg ovalbumin/mL), and male BALE/c mice, 6 weeks old, were actively sensitized to the antigen by intraperitoneal injections of 500 μL of it.
2) On the 6th day from sensitization, sensitized mice were boosted by additional intraperitoneal injections of 500 μL ovalbumin absorbed on aluminum hydroxide gel (20 μg ovalbumin/mL).
3) On the 11th day, 12th day, 13th day, 14th day and 15th day from the first sensitization, allergic conjunctivitis were induced by installations to the right eyes of the mice of […] of 50% glycerol solution containing 15% (W/V) ovalbumin.
4) […] of test compound suspension per eye was instilled to the right eye of the above mice 15 min, 1 hr and 3 hrs before ovalbumin instillation (three times) on the 15th day from sensitization. In vehicle-treated group (control group), the mice were instilled with 0.5% polysorbate 80/saline in substitution for test compound suspension.
5) Just before ovalbumin instillation on the 15th day from sensitization, all animals received a tail intravenous injection of 0.1% Evans blue dye. The right periocular tissues of the mice, which were the leaked parts of dye, were collected 30 min after ovalbumin instillation. The dye was extracted from the tissues with the dye extraction liquid. Then the absorbance of the dye extract was measured. The dye leakage was calculated from the absorbance value, and the inhibition ratio of the vascular hyper-permeability of test compound-treated group was calculated according to calculation equation 1. The inhibition ratio of the vascular hyper-permeability of test compound-treated group(%)=(1−Ax/Ao)×100 (Calculation Equation 1) Ao: Dye leakage in vehicle-treated group (control group) Ax: Dye leakage in test compound-treated group (Test Results and Discussion)

Test [2] deals with IL-6 production induced by lipopolysaccharide (LPS) in human corneal epithelial cells. Nature of the test: Evaluation test for GR agonist activity: inhibition of LPS-induced IL-6 production in human corneal epithelial cells (HCE-T). It counts as cell-based. To be noted: Corneal epithelial cell, 10 μL of 100 μM test compound solution per well, 4 hours incubation, efficacy relative to DEX. An outline of the steps: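 SV40-immortalized HCE-T cells were treated with test compound (100 μM solution, stock before dilution into well) plus LPS (1 μg/mL solution, likewise pre-dilution) for 4 hours in 10% FBS-DMEM/F12. IL-6 in supernatants was measured by HTRF. Inhibition was calculated relative to LPS-plus-DMSO and no-LPS controls, and efficacy was expressed as % of DEX inhibition.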

For orientation: Emax means the greatest response seen or fitted, relative to the assay's reference. For the compound `CCCS(=O)(=O)Oc1ccc(-c2ccc3c(c2CNc2ccccc2OC)C(C)=CC(C)(C)N3)c(OC)c1` [Compound 4-18, 5-(2-Methoxyphenylaminomethyl)-6-(2-methoxy-4-propylsulfonyloxyphenyl)-2,2,4-trimethyl-1,2-dihydroquinoline], in test [1], the inhibition in vivo at 10000 µg/mL worked out at 21%. The Emax in test [2] was found to be 89%.
The like results for `COc1cc(OC(=O)c2cccnc2)ccc1-c1ccc2c(c1COc1cc([N+](=O)[O-])ccc1C)C(C)=CC(C)(C)N2` [Compound 1-72, 6-[2-Methoxy-4-(pyridin-3-ylcarbonyloxy)phenyl]-5-(2-methyl-5-nitrophenoxymethyl)-2,2,4-trimethyl-1,2-dihydroquinoline] were, in that order, 21% and 82%.
The like results for `COc1cc(OC(=O)c2ccsc2)ccc1-c1ccc2c(c1COc1cc(F)ccc1C)C(C)=CC(C)(C)N2` [Compound 1-12, 5-(5-Fluoro-2-methylphenoxymethyl)-6-[2-methoxy-4-(thiophen-3-ylcarbonyloxy)phenyl]-2,2,4-trimethyl-1,2-dihydroquinoline] were, in that order, 17% and 85%.
Consider `COc1cc(OC(=O)c2ccco2)ccc1-c1ccc2c(c1COc1cc(F)ccc1C)C(C)=CC(C)(C)N2` [Compound 1-13, 5-(5-Fluoro-2-methylphenoxymethyl)-6-[4-(furan-2-ylcarbonyloxy)-2-methoxyphenyl]-2,2,4-trimethyl-1,2-dihydroquinoline], for which the inhibition in vivo at 10000 µg/mL in test [1] was determined as 24%. Also, the Emax in test [2] turned out to be 94%.

The values are drawn from patent US8426406B2, “Glucocorticoid receptor agonist comprising 2,2,4-trimethyl-6-phenyl-1,2-dihydroquinoline derivatives having substituted oxy group” (Santen Pharmaceutical Co., Ltd., priority 2008, dated 2013).
